Experimental data published in US9228020B2, “Compositions and methods for diagnosing and treating cancer” (OncoMed Pharmaceuticals, Inc., priority 2006, dated 2016).
“Also recorded” adds a separate entry of the source.

Experiments:
UM-C4 colon tumor cells = assay: UM-C4 xenograft, combination with fluorouracil; assay type: in vivo, NOD/SCID mice; settings: day 46
Procedure: In certain embodiments, anti-DLL4 antibodies were analyzed in combination with chemotherapy for the ability to reduce growth of UM-C4 colon tumor cells in vivo. Dissociated UM-C4 cells (10,000 per animal) were injected subcutaneously into the right flank region of 6-8 week old NOD/SCID mice. The day after tumor cell injection, animals were injected intraperitoneal (i.p.) with 10 mg/kg murine 21M18 anti-DLL4 antibodies or PBS two times per week for the duration of the experiment with or without concurrent treatment with the anti-metabolite chemotherapy agent fluorouracil (5-FU) administered one time per week. Tumor growth was monitored weekly until growth was detected, after which point tumor growth was measured twice weekly for a total of 8 weeks.

human DLL4 = human DLL4 (Homo sapiens, UniProt Q9NR61); assay: OMP-C11 tumor cell colonies overlaid with 3T3-DLL4 cells, HES1:ATOH1 expression; assay type: cell-based; parameters: expressed in transfected cells; host or cells: 3T3 cells; settings: 5 μM
human DLL4, sequence (Q9NR61 27-685): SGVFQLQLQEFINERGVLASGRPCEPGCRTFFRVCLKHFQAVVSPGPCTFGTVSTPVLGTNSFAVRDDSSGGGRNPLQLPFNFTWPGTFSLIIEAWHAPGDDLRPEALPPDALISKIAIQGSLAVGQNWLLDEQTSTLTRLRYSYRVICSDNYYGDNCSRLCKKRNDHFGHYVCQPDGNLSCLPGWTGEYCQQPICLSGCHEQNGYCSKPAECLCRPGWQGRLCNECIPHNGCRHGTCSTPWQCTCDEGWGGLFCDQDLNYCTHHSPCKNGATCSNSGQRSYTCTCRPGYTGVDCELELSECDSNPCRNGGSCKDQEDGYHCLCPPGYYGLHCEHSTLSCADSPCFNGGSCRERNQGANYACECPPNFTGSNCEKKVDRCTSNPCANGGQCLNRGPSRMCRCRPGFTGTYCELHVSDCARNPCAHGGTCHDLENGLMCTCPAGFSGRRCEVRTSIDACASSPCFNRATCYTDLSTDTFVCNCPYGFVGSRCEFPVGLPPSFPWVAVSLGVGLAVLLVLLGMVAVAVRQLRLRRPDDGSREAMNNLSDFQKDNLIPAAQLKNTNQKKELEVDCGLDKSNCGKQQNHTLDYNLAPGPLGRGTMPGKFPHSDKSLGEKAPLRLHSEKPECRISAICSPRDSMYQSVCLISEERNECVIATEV
Procedure: In some embodiments, mouse lineage-depleted OMP-C11 tumor cell colonies were established using culture conditions known to maintain tumorigenic cells in vitro. These tumor cell colonies were overlaid with 3T3 cells without (3T3) or including human DLL4 (DLL4) overexpressed on the cell surface in the presence or absence of 10 μg/mL murine 21M18 or 5 μM gamma-secretase inhibitor (GSI; i.e. DBZ). A no overlay control was also included.

C8 cells = assay: Established C8 colon tumors, combination with Irinotecan; assay type: in vivo, NOD/SCID mice; settings: treatment from approximately 60 mm^3; 21M18 10 mg/kg two times per week; Irinotecan 7.5 mg/kg one time per week
Procedure: In some embodiments, combination anti-DLL4 murine 21M18 and Irinotecan treatment was used to treat established colon tumors. Dissociated C8 cells (10,000 per animal) were injected subcutaneously into the right flank region of 6-8 week old NOD/SCID mice. When the injected cells produced tumors of approximately 60 mm^3, treatment was commenced. Animals were injected intraperitoneal (i.p.) with 10 mg/kg murine 21M18 anti-DLL4 antibodies or a control two times per week for the duration of the experiment with or without concurrent treatment with the chemotherapy agent Irinotecan administered one time per week at a dosage of 7.5 mg/kg.

OMP-C8 tumor cells = assay: OMP-C8 colon tumor xenograft growth prevention, combination with Irinotecan; assay type: in vivo, NOD/SCID mice; settings: 21M18 10 mg/kg twice per week; Irinotecan 7.5 mg/kg weekly; n=10 per group
Procedure: In certain embodiments, anti-DLL4 antibodies were tested in combination with the chemotherapeutic Irinotecan. In some embodiments, dissociated OMP-C8 tumor cells (10,000 per animal) were injected subcutaneously into the right flank region of 6-8 week old NOD/SCID mice. The day after tumor cell injection, animals were injected intraperitoneal (i.p.) with 10 mg/kg murine 21M18 anti-DLL4 antibodies or control antibody two times per week for the duration of the experiment with or without concurrent treatment with the chemotherapy agent Irinotecan administered one time per week at a dosage of 7.5 mg/kg. Tumor growth was monitored weekly until growth was detected, after which point tumor growth was measured twice weekly. […] In certain embodiments, humanized H7L2 21M18 anti-DLL4 antibodies were tested in combination with Irinotecan. In some embodiments, dissociated C8 tumor cells (10,000 per animal) were injected subcutaneously into the right flank region of 6-8 week old NOD/SCID mice. […] Tumor growth was monitored weekly until growth was detected, after which point tumor growth was measured twice weekly.

O=c1[nH]cc(F)c(=O)[nH]1 [5-FU, fluorouracil, reference compound]
tumor size compared to control (UM-C4 colon tumor cells): reduced tumor size

C[C@H](NC(=O)Cc1cc(F)cc(F)c1)C(=O)N[C@@H]1C(=O)N(C)c2ccccc2-c2ccccc21 [GSI, reference compound]
DLL4-induced Notch target gene changes (ratio of HES1:ATOH1) (human DLL4): inhibited DLL4-induced Notch target gene changes

CCc1c2c(nc3ccc(OC(=O)N4CCC(N5CCCCC5)CC4)cc13)-c1cc3c(c(=O)n1C2)COC(=O)[C@]3(O)CC [Irinotecan]
growth of established colon tumors (C8 cells): reduced tumor volume
tumor growth after treatment cessation on day 56 (OMP-C8 tumor cells): tumor growth continued or accelerated in most animals; also recorded: growth continued after cessation of treatment on day 56 (* arrow) in all but two treated animals
